Results reported in ChEMBL document CHEMBL3044577, “Evaluation of biological activity of new hemiesters of 17-hydroxy-16,17-secoestra-1,3,5(10)-triene-16-nitrile” (Med Chem Res, 2011).
The source made the active and inactive calls. The rule behind the calls is not given here.

system: not listed separately; assay: Growth inhibition of Homo sapiens (human) MRC5 cells at 10^-12 to 10^-6 M after 48 hr by MTT assay; assay type: cell-based; details: read-out: GI

Structure (SMILES)	inhibition at 48 h [%]
C[C@]1(COC(=O)CCCC(=O)O)CC[C@@H]2c3ccc(O)cc3CC[C@H]2[C@@H]1CC#N	10
C[C@]1(COC(=O)CCC(=O)O)CC[C@@H]2c3ccc(OCc4ccccc4)cc3CC[C@H]2[C@@H]1CC#N	40

system: MCF7; assay: Growth inhibition of Homo sapiens (human) MCF-7 cells at 10^-12 to 10^-7 M after 48 hr by MTT assay; assay type: functional; details: not given

Structure (SMILES)	growth inhibition (GI)
C[C@]12CC[C@@H]3c4ccc(O)cc4CC[C@H]3[C@@H]1CC[C@@H]2O [ESTRADIOL]	10%
CC/C(=C(\c1ccccc1)c1ccc(OCCN(C)C)cc1)c1ccccc1.O=C(O)CC(O)(CC(=O)O)C(=O)O [TAMOXIFEN CITRATE]	Active

system: MRC5; assay: Cytotoxicity against Homo sapiens (human) MRC5 cells at 10^-12 to 10^-6 M after 48 hr by MTT assay; assay type: cell-based; details: mrc5, 48 h

Structure (SMILES)	Activity
C[C@]1(COC(=O)CCCC(=O)O)CC[C@@H]2c3ccc(OCc4ccccc4)cc3CC[C@H]2[C@@H]1CC#N	Non-toxic

system: MDA-MB-231; assay type: functional, Homo sapiens; details: not given

Structure (SMILES)	growth inhibition (GI) [%]
C[C@]1(COC(=O)CCCC(=O)O)CC[C@@H]2c3ccc(O)cc3CC[C@H]2[C@@H]1CC#N	10
C[C@]1(COC(=O)CCC(=O)O)CC[C@@H]2c3ccc(OCc4ccccc4)cc3CC[C@H]2[C@@H]1CC#N	40
C[C@]1(COC(=O)CCC(=O)O)CC[C@@H]2c3ccc(O)cc3CC[C@H]2[C@@H]1CC#N	30
CC/C(=C(\c1ccccc1)c1ccc(OCCN(C)C)cc1)c1ccccc1.O=C(O)CC(O)(CC(=O)O)C(=O)O [TAMOXIFEN CITRATE]	30

system: HT-29; assay: Growth inhibition of Homo sapiens (human) HT-29 cells at 10^-12 to 10^-9 M after 48 hr by MTT assay; assay type: functional, cell-based; details: not given

Structure (SMILES)	growth inhibition (GI)
C[C@]1(COC(=O)CCCC(=O)O)CC[C@@H]2c3ccc(OCc4ccccc4)cc3CC[C@H]2[C@@H]1CC#N	Active

system: Rattus norvegicus; assay: Estrogenic activity in female Rattus norvegicus Wistar (rat) assessed as change in uterine weight at 25 mg/kg, sc QD for 3 days relative to control; details: in vivo, 72 h

Structure (SMILES)	Activity [%]
C[C@]1(COC(=O)CCC(=O)O)CC[C@@H]2c3ccc(O)cc3CC[C@H]2[C@@H]1CC#N	6.42
CC/C(=C(\c1ccccc1)c1ccc(OCCN(C)C)cc1)c1ccccc1.O=C(O)CC(O)(CC(=O)O)C(=O)O [TAMOXIFEN CITRATE]	39.36

system: MCF7; assay: Growth inhibition of Homo sapiens (human) MCF-7 cells at 10^-12 to 10^-6 M after 48 hr by MTT assay; assay type: functional; details: not given

Structure (SMILES)	growth inhibition (GI) [%]
C[C@]1(COC(=O)CCCC(=O)O)CC[C@@H]2c3ccc(O)cc3CC[C@H]2[C@@H]1CC#N	10
C[C@]1(COC(=O)CCC(=O)O)CC[C@@H]2c3ccc(OCc4ccccc4)cc3CC[C@H]2[C@@H]1CC#N	40
C[C@]1(COC(=O)CCC(=O)O)CC[C@@H]2c3ccc(O)cc3CC[C@H]2[C@@H]1CC#N	30

system: MCF7; assay: Induction of Homo sapiens (human) MCF7 cell growth at 10^-6 M after 48 hr by MTT assay; details: mcf7, 48 h, 1 µM

Structure (SMILES)	Activity
C[C@]12CC[C@@H]3c4ccc(O)cc4CC[C@H]3[C@@H]1CC[C@@H]2O [ESTRADIOL]	Non-toxic
CC/C(=C(\c1ccccc1)c1ccc(OCCN(C)C)cc1)c1ccccc1.O=C(O)CC(O)(CC(=O)O)C(=O)O [TAMOXIFEN CITRATE]	Non-toxic

target: T1, Aromatase (Rattus norvegicus, UniProt P22443); assay: Inhibition of aromatase in Rattus norvegicus (rat) PMSG-treated denucleated ovarian fraction using testosterone as substrate at 50 uM after 15 min by radioimmuno assay; details: 0.25 h
T1 sequence (P22443 whole entry): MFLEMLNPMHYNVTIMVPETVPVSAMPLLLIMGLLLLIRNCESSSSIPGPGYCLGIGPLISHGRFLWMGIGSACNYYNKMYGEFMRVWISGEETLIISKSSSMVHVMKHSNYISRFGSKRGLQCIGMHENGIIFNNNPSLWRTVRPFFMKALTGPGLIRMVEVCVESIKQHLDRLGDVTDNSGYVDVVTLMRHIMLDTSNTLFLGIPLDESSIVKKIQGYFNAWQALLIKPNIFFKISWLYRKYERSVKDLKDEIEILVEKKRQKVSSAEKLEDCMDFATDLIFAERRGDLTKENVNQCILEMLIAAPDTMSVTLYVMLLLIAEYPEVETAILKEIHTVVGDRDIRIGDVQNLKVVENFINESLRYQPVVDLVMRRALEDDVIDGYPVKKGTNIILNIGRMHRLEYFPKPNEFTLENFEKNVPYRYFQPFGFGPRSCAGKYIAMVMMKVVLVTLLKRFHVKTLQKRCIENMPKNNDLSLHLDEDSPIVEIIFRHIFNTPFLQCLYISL

inhibition at 50 µM [%]	Structure (SMILES)
67.3	C[C@]1(COC(=O)CCCC(=O)O)CC[C@@H]2c3ccc(O)cc3CC[C@H]2[C@@H]1CC#N
88.2	C[C@]1(COC(=O)CCCC(=O)O)CC[C@@H]2c3ccc(OCc4ccccc4)cc3CC[C@H]2[C@@H]1CC#N
21.2	C[C@]1(COC(=O)CCC(=O)O)CC[C@@H]2c3ccc(OCc4ccccc4)cc3CC[C@H]2[C@@H]1CC#N
0.1	C[C@]1(COC(=O)CCC(=O)O)CC[C@@H]2c3ccc(O)cc3CC[C@H]2[C@@H]1CC#N

system: Rattus norvegicus; assay: Estrogenic activity in female Rattus norvegicus Wistar (rat)assessed as change in uterine weight at 5 mg/kg, sc QD for 3 days relative to control; details: in vivo, 72 h

Activity [%]	Structure (SMILES)
-2.06	C[C@]1(CO)CC[C@@H]2c3ccc(O)cc3CC[C@H]2[C@@H]1CC#N
-9.63	C[C@]1(COC(=O)CCCC(=O)O)CC[C@@H]2c3ccc(O)cc3CC[C@H]2[C@@H]1CC#N
-3.92	C[C@]1(COC(=O)CCCC(=O)O)CC[C@@H]2c3ccc(OCc4ccccc4)cc3CC[C@H]2[C@@H]1CC#N
-2.28	C[C@]1(COC(=O)CCC(=O)O)CC[C@@H]2c3ccc(OCc4ccccc4)cc3CC[C@H]2[C@@H]1CC#N
-6.78	C[C@]1(COC(=O)CCC(=O)O)CC[C@@H]2c3ccc(O)cc3CC[C@H]2[C@@H]1CC#N
0.71	C[C@]1(CO)CC[C@@H]2c3ccc(OCc4ccccc4)cc3CC[C@H]2[C@@H]1CC#N

Structure (SMILES)	Activity [%]
CC/C(=C(\c1ccccc1)c1ccc(OCCN(C)C)cc1)c1ccccc1.O=C(O)CC(O)(CC(=O)O)C(=O)O [TAMOXIFEN CITRATE]	39.78

system: MCF7; assay: Growth inhibition of Homo sapiens (human) MCF-7 cell growth at 10^-6 M after 48 hr by MTT assay; assay type: functional, cell-based; details: not given

Structure (SMILES)	growth inhibition (GI)
C[C@]12CC[C@@H]3c4ccc(O)cc4CC[C@H]3[C@@H]1CC[C@@H]2O [ESTRADIOL]	inactive
CC/C(=C(\c1ccccc1)c1ccc(OCCN(C)C)cc1)c1ccccc1.O=C(O)CC(O)(CC(=O)O)C(=O)O [TAMOXIFEN CITRATE]	inactive

target: T1, Aromatase; assay: Inhibition of aromatase in Rattus norvegicus (rat) PMSG-treated denucleated ovarian fraction using testosterone as substrate at 10 uM after 15 min by radioimmuno assay; details: 0.25 h

inhibition at 10 µM [%]	Structure (SMILES)
16.6	C[C@]1(COC(=O)CCCC(=O)O)CC[C@@H]2c3ccc(O)cc3CC[C@H]2[C@@H]1CC#N
17.9	C[C@]1(COC(=O)CCCC(=O)O)CC[C@@H]2c3ccc(OCc4ccccc4)cc3CC[C@H]2[C@@H]1CC#N
7.02	C[C@]1(COC(=O)CCC(=O)O)CC[C@@H]2c3ccc(OCc4ccccc4)cc3CC[C@H]2[C@@H]1CC#N
-10.6	C[C@]1(COC(=O)CCC(=O)O)CC[C@@H]2c3ccc(O)cc3CC[C@H]2[C@@H]1CC#N

system: Rattus norvegicus; assay: Antiestrogenic activity in female Rattus norvegicus Wistar (rat) assessed as decrease in estradiol benzoate-induced uterine weight at 5 mg/kg, sc QD for 3 days relative to control; assay type: functional; details: 72 h, route subcutaneous

Structure (SMILES)	inhibition in vivo at 5 mg/kg [%]
C[C@]1(CO)CC[C@@H]2c3ccc(O)cc3CC[C@H]2[C@@H]1CC#N	21.1
C[C@]1(COC(=O)CCCC(=O)O)CC[C@@H]2c3ccc(O)cc3CC[C@H]2[C@@H]1CC#N	13.8
C[C@]1(COC(=O)CCCC(=O)O)CC[C@@H]2c3ccc(OCc4ccccc4)cc3CC[C@H]2[C@@H]1CC#N	8.5
C[C@]1(COC(=O)CCC(=O)O)CC[C@@H]2c3ccc(OCc4ccccc4)cc3CC[C@H]2[C@@H]1CC#N	2.82
C[C@]1(COC(=O)CCC(=O)O)CC[C@@H]2c3ccc(O)cc3CC[C@H]2[C@@H]1CC#N	41.6
C[C@]1(CO)CC[C@@H]2c3ccc(OCc4ccccc4)cc3CC[C@H]2[C@@H]1CC#N	31.5

system: HT-29; assay: Growth inhibition of Homo sapiens (human) HT-29 cells at 10^-12 to 10^-6 M after 48 hr by MTT assay; assay type: functional; parameters: concentration or dose not given beside the values; details: not given

Structure (SMILES)	growth inhibition (GI)
C[C@]1(COC(=O)CCCC(=O)O)CC[C@@H]2c3ccc(O)cc3CC[C@H]2[C@@H]1CC#N	10%
C[C@]12CC[C@@H]3c4ccc(O)cc4CC[C@H]3[C@@H]1CC[C@@H]2O [ESTRADIOL]	20%
C[C@]1(COC(=O)CCC(=O)O)CC[C@@H]2c3ccc(OCc4ccccc4)cc3CC[C@H]2[C@@H]1CC#N	40%
C[C@]1(COC(=O)CCC(=O)O)CC[C@@H]2c3ccc(O)cc3CC[C@H]2[C@@H]1CC#N	30%
CC/C(=C(\c1ccccc1)c1ccc(OCCN(C)C)cc1)c1ccccc1.O=C(O)CC(O)(CC(=O)O)C(=O)O [TAMOXIFEN CITRATE]	Active

system: MCF7; assay: Growth inhibition of Homo sapiens (human) MCF-7 cells at 10^-12 to 10^-9 M after 48 hr by MTT assay; assay type: functional; details: not given

Structure (SMILES)	growth inhibition (GI) [%]
C[C@]1(COC(=O)CCCC(=O)O)CC[C@@H]2c3ccc(OCc4ccccc4)cc3CC[C@H]2[C@@H]1CC#N	20

system: Rattus norvegicus; assay: Antiestrogenic activity in female Rattus norvegicus Wistar (rat) assessed as decrease in estradiol benzoate-induced uterine weight at 25 mg/kg, sc QD for 3 days relative to control; assay type: functional; details: 72 h, route subcutaneous

Structure (SMILES)	inhibition in vivo at 25 mg/kg [%]
C[C@]1(COC(=O)CCC(=O)O)CC[C@@H]2c3ccc(O)cc3CC[C@H]2[C@@H]1CC#N	11.9
CC/C(=C(\c1ccccc1)c1ccc(OCCN(C)C)cc1)c1ccccc1.O=C(O)CC(O)(CC(=O)O)C(=O)O [TAMOXIFEN CITRATE]	62.8
